From patent publication US8563550B2, “Imidazolothiadiazoles for use as protein kinase inhibitors” (Centro Nacional de Investigaciones Oncologicas (CNIO), priority 2007, dated 2013)

biological target: T1, PIM-1 (Homo sapiens, UniProt P11309); experiment: PIM-1 biochemical assay (ADP Hunter assay kit); settings: compound concentration 10 μM; approximate values
T1 construct: histidine tag (C); made in house
Text: The biochemical assay to measure PIM-1 activity relies on the ADP Hunter assay kit (DiscoveRx Corp., Cat. #90-0077), that determines the amount of ADP as direct product of the kinase enzyme activity.
The enzyme has been expressed and purified in-house as a recombinant human protein with a C-terminal histidine tag. The protein is active and stable.
Assay conditions were as indicated by the kit manufacturers with the following adaptations for the kinase activity step: • Kinase assay buffer and assay volume stay as recommended (15 mM HEPES, pH 7.4, 20 mM NaCl, 1 mM EGTA, 0.02% Tween 20, 10 mM MgCl2 and 0.1 mg/ml bovine γ-globulins/75 μl assay volume) • Incubation time and temperature: 60 min at 30° C. • PIM-1 concentration: 50 pg/μl • ATP concentration: 100 μM • PIM-1 substrate peptide: PIMtide (ARKRRRHPSGPPTA) • Peptide concentration: 60 μM • Positive control for kinase activity inhibition: 1-10 μM Staurosporine • DMSO concentration have to stay below 2% during the kinase reaction
Assays were performed in either 96 or 384-well plates. The final outcome of the coupled reactions provided by the kit is the release of the fluorescent product Resorufin and has been measured with a multilabel HTS counter VICTOR V (PerkinElmer) using an excitation filter at 544 nm and an emission filter at 580 nm.

T1 sequence (P11309 whole entry): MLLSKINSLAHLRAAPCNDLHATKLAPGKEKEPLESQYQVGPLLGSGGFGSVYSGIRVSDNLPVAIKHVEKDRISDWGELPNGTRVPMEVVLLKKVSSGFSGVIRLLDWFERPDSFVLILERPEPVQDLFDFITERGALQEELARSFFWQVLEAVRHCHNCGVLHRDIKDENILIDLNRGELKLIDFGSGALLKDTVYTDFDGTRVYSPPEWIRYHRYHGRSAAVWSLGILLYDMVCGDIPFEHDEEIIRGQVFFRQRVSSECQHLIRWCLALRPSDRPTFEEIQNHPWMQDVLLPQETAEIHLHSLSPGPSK

Molecule	Percentage Inhibition of PIM-1 at 10 μM [%]
FC(F)(F)Oc1cccc(-c2cnc3sc(NCC4CC4)nn23)c1 [34(39), Cyclopropylmethyl-[5-(3-trifluoromethoxy-phenyl)-imidazo[2,1-b][1,3,4]thia-diazol-2-yl]-amine]	82
4-{2-[(Furan-2-ylmethyl)-amino]-imidazo[2,1-b][1,3,4]thiadiazol-5-yl}-phenol [34(40)]	100

same assay, conditions: compound concentration 10 μM; approximate values; read-out: Percentage Inhibition of PIM-1 at 10 μM

Molecule	inhibition at 10 µM [%]
Oc1ccc(-c2cnc3sc(Nc4ccc(F)cc4)nn23)cc1 [Example 18, 4-[2-(4-Fluoro-phenylamino)-imidazo[2,1-b][1,3,4]thiadiazol-5-yl]-phenol]	82
CC(=O)c1cccc(-c2cnc3sc(NCc4cccs4)nn23)c1 [34(22), 1-(3-{2-[(Thiophen-2-ylmethyl)-amino]-imidazo[2,1-b][1,3,4]thiadiazol-5-yl}-phenyl)-ethanone]	82
Clc1cccc(-c2cnc3sc(NCCc4ccccn4)nn23)c1 [34(5), [5-(3-Chloro-phenyl)-imidazo[2,1-b][1,3,4]thiadiazol-2-yl]-(2-pyridin-2-yl-ethyl)-amine]	98
Cc1cc(-c2cnc3sc(NCC4CC4)nn23)cc(C)c1O [34(58), 4-[2-(Cyclopropylmethyl-amino)-imidazo[2,1-b][1,3,4]thiadiazol-5-yl]-2,6-dimethylphenol]	97
COCCNc1nn2c(-c3ccc4ccccc4c3)cnc2s1 [34(8), (2-Methoxy-ethyl)-(5-naphthalen-2-yl-imidazo[2,1-b][1,3,4]thiadiazol-2-yl)-amine]	98
CN(C)c1cccc(-c2cnc3sc(NCC4CCOCC4)nn23)c1 [34(16), [5-(3-Dimethylamino-phenyl)-imidazo[2,1-b][1,3,4]thiadiazol-2-yl]-(tetrahydro-pyran-4-ylmethyl)-amine]	99
COc1ccc(CNc2nn3c(-c4ccc(F)c(Cl)c4)cnc3s2)cc1 [34(33), [5-(3-Chloro-4-fluoro-phenyl)-imidazo[2,1-b][1,3,4]thiadiazol-2-yl]-(4-meth-oxybenzyl)-amine]	84
COCCNc1nn2c(-c3ccc(F)c(Cl)c3)cnc2s1 [34(14), [5-(3-Chloro-4-fluoro-phenyl)-imidazo[2,1-b][1,3,4]thiadiazol-2-yl]-(2-meth-oxyethyl)-amine]	96
CC(C)CNc1nn2c(-c3cccc(N(C)C)c3)cnc2s1 [34(3), [5-(3-Dimethylamino-phenyl)-imidazo[2,1-b][1,3,4]thiadiazol-2-yl]-isobutyl-amine]	97
COc1ccc(CNc2nn3c(-c4ccc5ccccc5c4)cnc3s2)cc1 [34(12), (4-Methoxy-benzyl)-(5-naphthalen-2-yl-imidazo[2,1-b][1,3,4]thiadiazol-2-yl)-amine]	58
c1ccc2cc(-c3cnc4sc(NCC5CC5)nn34)ccc2c1 [34(10), Cyclopropylmethyl-(5-naphthalen-2-yl-imidazo[2,1-b][1,3,4]thiadiazol-2-yl)-amine]	77
CC(=O)c1cccc(-c2cnc3sc(NCCN4CCOCC4)nn23)c1 [34(65), 1-{3-[2-(2-Morpholin-4-yl-ethylamino)-imidazo[2,1-b][1,3,4]thiadiazol-5-yl]-phenyl}-ethanone]	77
Fc1ccc(-c2cnc3sc(-c4ccccc4)nn23)cc1 [Example 4, 5-(4-Fluorophenyl)-2-phenyl-imidazo[2,1-b][1,3,4]thiadiazole]	83
Fc1ccc(CNc2nn3c(-c4cccnc4)cnc3s2)cc1 [34(57), (4-Fluoro-benzyl)-(5-pyridin-3-yl-imidazo[2,1-b][1,3,4]thiadiazol-2-yl)-amine]	73
CN(C)c1cccc(-c2cnc3sc(Oc4ccc(F)cc4)nn23)c1 [Example 15, {3-[2-(4-Fluoro-phenoxy)-imidazo[2,1-b][1,3,4]thiadiazol-5-yl]-phenyl}-dimethyl-amine]	89
c1ccc(OCCNc2nn3c(-c4ccc5ccccc5c4)cnc3s2)cc1 [34(4), (5-Naphthalen-2-yl-imidazo[2,1-b][1,3,4]thiadiazol-2-yl)-(2-phenoxy-ethyl)-amine]	71
